Results: the NIST ThermoML archive (doi:10.1021/je8002964)
± gives the expanded uncertainty stated by the source.

Details: 298.15 K; 101.33 kPa; Liquid

`OCC(F)(F)F` [2,2,2-trifluoroethanol] showed a mass density of 1382.4 ± 1.2 kg/m3.

For `C1CCCCC1` [cyclohexane], the mass density was 774 ± 0.3 kg/m3.

Work on `CCCCCCC` [heptane] yielded a mass density of 680 ± 0.7 kg/m3.

Compound `CO` [methanol] has a mass density of 787 ± 0.4 kg/m3.

For `CC(C)O` [propan-2-ol], the mass density was 781.4 ± 0.5 kg/m3.
